Data taken from paper PMC12040169 (PLOS Biology, 2025).

Assay: in vitro
Conditions: human, hela cells, % viability

| SMILES | viability at 28.5 h, 10 µM [%] | viability at 28.5 h, 10 µM (bulk resorufin, single well) [%] |
| --- | --- | --- |
| Clc1cccc(C2N(Cc3ccccc3)CCN2Cc2ccccc2)c1 [CBK261222] | 93.1 | – |
| O=C(NCCN1CCOCC1)c1ccc(NS(=O)(=O)c2ccccc2)cc1 [CBK270118] | 102 | – |
| CCN(CC)Cc1cc(C(C)(C)C)oc1C(=O)O [CBK266013C] | 110 | – |
| COc1cccc(C(=O)NCCC(=O)N2CCC3(CC2)CNC(=O)O3)c1 [CBK306803] | 88.2 | – |
| O=C(COc1ccccc1)NC(=S)Nc1cccc(-c2nc3ccccc3s2)c1 [CBK264360] | 107 | – |
| CC(C)NC(=O)C1(Cc2ccc(-c3ccccc3F)cc2)CCN(C(=O)C(C)C)CC1 [CBK285754] | 102 | – |
| COc1ccc(Br)c(C(=O)Nc2cc(N3CCNCC3)c3occc3c2)c1 [CBK061757C] | 115 | – |
| COc1ccccc1N1CCN(C(=O)NCCC(C)C)CC1 [CBK155611] | 94.5 | – |
| COc1cc(CN2CCN(Cc3cccnc3)CC2)cc(OC)c1O [CBK264274G] | 102 | – |
| Cn1nc(C(C)(C)C)cc1C(=O)N1CCNC(=O)C1Cc1ccc(-c2cccs2)cc1 (stereo not shown) [CBK285810] | 92.2 | – |
| COc1cc(NC(=O)NC(=O)C2CCN(C(C)=O)CC2)cc(OC)c1OC [CBK034831] | 114 | – |
| CN1C[C@@H](NC(=O)c2ccc(C#N)cc2)C[C@H]1c1nc(-c2ccc(F)cc2)no1 [CBK288865] | 92.1 | – |
| O=C(NCc1ccc2c(c1)OCO2)N1CCCCC1CO (stereo not shown) [CBK156166] | 89.3 | – |
| Cc1cc(N2CCCC(C(=O)N3CCOCC3)C2)nc(N)n1 (stereo not shown) [CBK305985] | 76.4 | – |
| Cc1ccc(C(=O)NCc2ccc(-c3n[nH]cc3C(=O)N(C)Cc3ccccc3)cc2)cc1 [CBK285598] | 100 | – |
| COCCN(Cc1ccccc1C)C(=O)C1CCc2nn(C)c(=O)n2C1 (stereo not shown) [CBK306934] | 80.8 | – |
| c1ccc2c(c1)OCC(COc1nccc(N3CCCN(Cc4ccc5c(c4)OCO5)CC3)n1)O2 (stereo not shown) [CBK083235T] | 85.7 | – |
| O=[N+]([O-])c1ccc(CN2CCN(c3nccnc3OCC3COc4ccccc4O3)CC2)cc1 (stereo not shown) [CBK082791T] | 107 | – |
| CC(C)CC1CC(=O)Nc2c1c(=O)[nH]n2C(C)C (stereo not shown) [CBK287924] | 105 | – |
| COCC(=O)Nc1nc(OC)cnc1/C=C\c1ccccc1 [CBK145360] | 113 | – |
| Cc1cc(NC(=O)CN(C)c2ncccc2C#N)no1 [CBK304182] | 77.7 | – |
| O=C1CCCC[C@@H]2[C@@H](N1)[C@H](c1ccccc1)CN2Cc1ccc2ccccc2n1 [CBK286281] | 93.1 | – |

| SMILES | viability at 28.5 h, 10 µM [%] | viability at 28.5 h, 10 µM (bulk resorufin, single well) [%] |
| --- | --- | --- |
| CCC12CN3CC(CC)(CN(C1)C3c1c(C)[nH]c3ccccc13)C2=O (stereo not shown) [CBK265547] | 89.4 | – |
| CCOc1ccc2c(c1)cc(C(=O)N(C)CC(F)(F)F)n2C [CBK281509] | 80.7 | – |
| CCOC(=O)C1CCCN(CCC(=O)Nc2cccc(C)c2)C1 (stereo not shown) [CBK264158C] | 107 | – |
| O=C(CSc1nc2ccccc2s1)c1cccc([N+](=O)[O-])c1 [CBK262130] | 88.2 | – |
| CN1CCN(Cc2c(C(C)(C)C)[nH]c3ncccc23)CC1 [CBK285334] | 104 | – |
| CCC1=C(C)C(=O)N(C(=O)NCCc2ccc(S(=O)(=O)NC(=O)NC3CCC(C)CC3)cc2)C1 (stereo not shown) [CBK011561] | 93.2 | – |
| CC(Oc1ccccc1Br)c1nc(-c2nonc2N)no1 (stereo not shown) [CBK026982] | 86.2 | – |
| Cc1cccc(C(=O)NC(=S)Nc2cccc(C(=O)O)c2)c1 [CBK264987] | 121 | – |
| O=C(c1ccc2ccccc2n1)N1CCC(F)CC1 [CBK200276] | 102 | – |
| O=C(O)c1cc(S(=O)(=O)NCc2ccco2)ccc1Br [CBK306193] | 83.7 | – |
| O=C(N/N=C/c1ccc[nH]1)C1CC1c1ccccc1 (stereo not shown) [CBK022120] | 98.8 | – |
| Nc1nc(CCC(=O)N2Cc3cnn(Cc4ccc(F)cc4)c3C2)cs1 [CBK307019] | 99.6 | – |
| Cn1nccc1NS(=O)(=O)c1cc(C(F)(F)F)cc(C(F)(F)F)c1 [CBK062090] | 92.6 | – |
| CCN(CC)C(=O)c1sc2ncccc2c1NS(=O)(=O)c1cc(Cl)sc1Cl [CBK050615] | 92.2 | – |
| O=C(c1cccc(-c2ccc(F)cc2)c1)N1CC(O)C1 [CBK281499] | 100 | – |
| Cc1cc(C)cc(N2C(=O)/C(=C/c3ccc(OC(C)C(=O)O)cc3)C(=O)NC2=S)c1 (stereo not shown) [CBK264016] | – | 93.9 |
| CC(C)c1ccc(OCCN2CCNCC2)cc1 [CBK266024C] | 96 | – |
| CC(=O)C(Sc1ccc2nnc(-c3ccc(C)cc3)n2n1)C(C)=O [CBK287525] | 98.9 | – |
| Cc1cc(-c2sc(N)nc2-c2cccs2)on1 [CBK284492] | 87.9 | – |
| CC(C)Cn1c(=O)[nH]c2ncc(-c3cccc4cccnc34)nc21 [CBK064400] | 60.5 | – |
| CC(C)(C)c1cc(-n2c(-c3cccnc3)nc3ccccc32)cc(C(C)(C)C)c1O [CBK262907] | 103 | – |
| COc1ccc(OC(=O)N2CCC3(CC2)CC(=O)N(Cc2ccc(S(C)(=O)=O)cc2)C3=O)cc1 [CBK155952] | 99.3 | – |

| SMILES | viability at 28.5 h, 10 µM [%] | viability at 28.5 h, 10 µM (bulk resorufin, single well) [%] |
| --- | --- | --- |
| O=C(NC(C(=O)N/N=C/c1coc2ccccc2c1=O)c1n[nH]c(=O)c2ccccc12)c1ccccc1 (stereo not shown) [CBK262847] | 95.3 | – |
| CCn1cc(CC(=O)NCCn2ccc(C)n2)c2ccccc21 [CBK282670] | 96.7 | – |
| Cc1ccccc1-n1c(C)cc(C(=O)CSc2nncn2C)c1C [CBK298330] | 91.9 | – |
| COc1cccc(CN(Cc2ccco2)Cc2cncn2C)c1 [CBK282497] | 102 | – |
| Cc1ccc(C2(O)CCN(Cc3cn(C)nc3C)CC2)cc1 [CBK282753] | 107 | – |
| CCN1CCN(c2ccc(NC(=S)NC(=O)c3ccccc3Br)cc2)CC1 [CBK268583] | 102 | – |
| FCCOc1cncc(Cl)n1 [CBK113553] | 115 | – |
| CCCCCCC(C)n1c(-c2nonc2N)nc2ccccc21 (stereo not shown) [CBK062648] | 94.2 | – |
| CN1CCN(C(=O)CC[C@@H]2CNC(=O)[C@@H]3C[C@H](NC(=O)c4cccs4)CN23)CC1 [CBK289013] | 124 | – |
| O=C(NNC(=O)C(O)c1ccccc1)NC1CCCCC1 (stereo not shown) [CBK262625] | 106 | – |
| Cc1c(-c2cc(C(F)F)n3nc(CCC(=O)O)nc3n2)cnn1C [CBK286888] | 85.7 | – |
| O=C(NCCc1c[nH]c2ccccc12)c1ccc(-c2ccco2)nc1N1CCN(C(=O)c2ccco2)CC1 [CBK076217] | 95.4 | – |
| O=C(Cn1c(C(F)(F)F)nc2ccccc21)NCCN1CCOCC1 [CBK267339] | 100 | – |
| CC(=O)N1CCc2sccc2C1c1ccc(NC(=O)C2CC2)cc1 (stereo not shown) [CBK282907] | 87.8 | – |
| NCCCC(=O)OC1N=C(c2ccccc2Cl)c2cc(Br)ccc2NC1=O (stereo not shown) [CBK264689B] | – | 104 |
| COCCNc1nc(-c2ccccc2)ccc1C(=O)N(C)CCN(C)C [CBK105913] | 99.3 | – |
| CCOC(=O)c1cnn(C2CCCN(Cc3cncs3)C2)c1 (stereo not shown) [CBK304039] | 94.7 | – |
| COc1cccc2sc(NC(=O)Cc3ccccc3)nc12 [CBK149284] | 103 | – |
| Cc1cc(C)cc(N(CCC#N)C(=O)CSc2nnc[nH]2)c1 [CBK296955] | 101 | – |
| CCn1ccc(NC(=O)CC2CCN(Cc3cccc(C(F)(F)F)c3)CC2)n1 [CBK285997] | 101 | – |
